Results from patent US20240263147A1, “CARDIAC ORGANOID AND ANTI-ELECTRO-MITOCHONDRIAL DESYNCHRONIZATION THERAPY” (YISSUM RESEARCH DEVELOPMENT COMPANY OF THE HEBREW …, priority 2021, published 2024).
“Also recorded” adds a separate entry of the source.

Tested on: not given
Experiment: not given
Conditions: known cardiac side effects of therapeutic agents; cited from earlier work

Molecule	Side effect (cardiac)
O=c1[nH]cc(F)c(=O)[nH]1 [5-fluorouracil]	arrhythmias, myocardial ischemia, heart failure
Cn1c(=O)cc(N2CCC[C@@H](N)C2)n(Cc2ccccc2C#N)c1=O [Alogliptin]	heart failure
COc1ccc(CCN2CCC(Nc3nc4ccccc4n3Cc3ccc(F)cc3)CC2)cc1 [Astemizole]	long QT syndrome, TdP
Cc1cn([C@H]2C[C@H](N=[N+]=[N-])[C@@H](CO)O2)c(=O)[nH]c1=O [Azidothymidine]	dilated cardiomyopathy
CC(C)C[C@H](NC(=O)[C@H](Cc1ccccc1)NC(=O)c1cnccn1)B(O)O [Bortezomib]	heart failure, arrhythmia
COc1cc(OC)c(C(=O)CCCN2CCCC2)c(OC)c1 [Buflomedil]	QT prolongation, cardiac arrest
CCCCN1CCCCC1C(=O)Nc1c(C)cccc1C (stereo not drawn) [Bupivacaine]	ventricular arrhythmias, myocardial depression
CC(C)(N)Cc1ccc(Cl)cc1 [Chlorphentermine]	pulmonary heart disease
COc1cc(N)c(Cl)cc1C(=O)NC1CCN(CCCOc2ccc(F)cc2)CC1OC (stereo not drawn) [Cispapride]	ventricular arrhythmia, QT prolongation, TdP, cardiac arrest
N.N.[Cl][Pt][Cl] [Cisplatin]	arrhythmias, myocardial ischemia, heart failure
CC[C@H]1OC(=O)[C@H](C)[C@@H](O[C@H]2C[C@@](C)(OC)[C@@H](O)[C@H](C)O2)[C@H](C)[C@@H](O[C@@H]2O[C@H](C)C[C@H](N(C)C)[C@H]2O)[C@](C)(OC)C[C@@H](C)C(=O)[C@H](C)[C@@H](O)[C@]1(C)O [Clarithromycin]	QT prolongation, myocardial infarction, arrhythmias, cardiac death
CC(CN(C)C)C(C)(O)Cc1ccc(Cl)cc1 (stereo not drawn) [Clobutinol]	QT prolongation
COC(=O)[C@H]1[C@@H](OC(=O)c2ccccc2)C[C@@H]2CC[C@H]1N2C [Cocaine]	left ventricular hypertrophy, arrhythmias
Cc1nc(Nc2ncc(C(=O)Nc3c(C)cccc3Cl)s2)cc(N2CCN(CCO)CC2)n1 [Dasatinib]	heart failure
COc1cccc2c1C(=O)c1c(O)c3c(c(O)c1C2=O)C[C@@](O)(C(C)=O)C[C@@H]3O[C@H]1C[C@H](N)[C@H](O)[C@H](C)O1 [Daunorubicin]	arrhythmias, heart failure
CCN[C@@H](C)Cc1cccc(C(F)(F)F)c1 [Dexfenfluramine]	valvular heart disease
CC(=O)O[C@@]12CO[C@@H]1C[C@H](O)[C@@]1(C)C(=O)[C@H](O)C3=C(C)[C@@H](OC(=O)[C@H](O)[C@@H](NC(=O)OC(C)(C)C)c4ccccc4)C[C@@](O)([C@@H](OC(=O)c4ccccc4)[C@H]21)C3(C)C [Docetaxel]	bradycardia, myocardial ischemia, heart failure
COc1cccc2c1C(=O)c1c(O)c3c(c(O)c1C2=O)C[C@@](O)(C(=O)CO)C[C@@H]3O[C@H]1C[C@H](N)[C@H](O)[C@H](C)O1 [Doxorubicin]	arrhythmias, heart failure
COc1ccc(C(=O)Nc2ccccc2CCC2CCCCN2C)cc1 (stereo not drawn) [Encainide]	QT prolongation, TdP
CN1C[C@H](C(=O)N[C@]2(C)O[C@@]3(O)[C@@H]4CCCN4C(=O)[C@H](Cc4ccccc4)N3C2=O)C=C2c3cccc4[nH]cc(c34)C[C@H]21 [Ergotamine]	valvular heart disease
Cc1ccc(-c2ncc(Cl)cc2-c2ccc(S(C)(=O)=O)cc2)cn1 [Etoricoxib]	thrombotic events
CCNC(C)Cc1cccc(C(F)(F)F)c1 (stereo not drawn) [Fenfluramine]	valvular heart disease
CC(=O)[C@]1(O)Cc2c(O)c3c(c(O)c2[C@@H](O[C@H]2C[C@H](N)[C@H](O)[C@H](C)O2)C1)C(=O)c1ccccc1C3=O [Idarubicin]	arrhythmias, heart failure
CS(=O)(=O)CCNCc1ccc(-c2ccc3ncnc(Nc4ccc(OCc5cccc(F)c5)c(Cl)c4)c3c2)o1 [Lapatinib]	left ventricular ejection fraction, congestive heart failure

Molecule	Side effect (cardiac)
CCN(CC)CC(=O)Nc1c(C)cccc1C [Lidocaine]	bradycardia, cardiac arrest
CC[C@@H](CO)NC(=O)[C@@H]1C=C2c3cccc4c3c(cn4C)C[C@H]2N(C)C1 [Methysergide]	valvular heart disease
COCC(=O)O[C@]1(CCN(C)CCCc2nc3ccccc3[nH]2)CCc2cc(F)ccc2[C@@H]1C(C)C [Mibefradil]	QT prolongation
COc1ccc2cc([C@H](C)C(=O)O)ccc2c1 [Naproxen]	myocardial infarction
COc1ccc2[nH]c([S+]([O-])Cc3ncc(C)c(OC)c3C)nc2c1 (stereo not drawn) [Omeprazole]	acute myocardial infarction, heart failure
N=C(N)c1ccc(OCCCCCOc2ccc(C(=N)N)cc2)cc1 [Pentamidine]	QT prolongation, arrhythmias
CCCN1C[C@H](CSC)C[C@@H]2c3cccc4[nH]cc(c34)C[C@H]21 [Pergolide]	valvular heart disease
CC(C)(N)Cc1ccccc1 [Phentermine]	valvular heart disease
CS(=O)(=O)c1ccc(C2=C(c3ccccc3)C(=O)OC2)cc1 [Rofecoxib]	myocardial infarction
CN(CCOc1ccc(CC2SC(=O)NC2=O)cc1)c1ccccn1 (stereo not drawn) [Rosiglitazone]	heart failure
O=C1NCCN1CCN1CCC(c2cn(-c3ccc(F)cc3)c3ccc(Cl)cc23)CC1 [Sertindole]	QT prolongation, TdP, sudden cardiac death
CC(C)OC(=O)[C@H](C)N[P@](=O)(OC[C@H]1O[C@@H](n2ccc(=O)[nH]c2=O)[C@](C)(F)[C@@H]1O)Oc1ccccc1 [Sofobuvir]	Bradycardia
CNC(=O)c1cc(Oc2ccc(NC(=O)Nc3ccc(Cl)c(C(F)(F)F)c3)cc2)ccn1 [Sorafenib]	heart failure, myocardial ischemia, QT prolongation
C[C@@H]1CN(c2c(F)c(N)c3c(=O)c(C(=O)O)cn(C4CC4)c3c2F)C[C@H](C)N1 [Sparfloxacin]	QT prolongation
CCN(CC)CCNC(=O)c1c(C)[nH]c(/C=C2\C(=O)Nc3ccc(F)cc32)c1C [Sunitinib]	long QT, left ejection fraction, myocardial infarction
CCCCCNC(=N)N/N=C/c1c[nH]c2ccc(OC)cc12 [Tegaserod]	Ischemia
CC(CC(c1ccccc1)c1ccccc1)NC(C)(C)C (stereo not drawn) [Terodiline]	ventricular tachycardia, cardiac death
COc1cc2c(Nc3ccc(Br)cc3F)ncnc2cc1OCC1CCN(C)CC1 [Vandetanib]	long QT
COc1ccc(C(CN(C)C)C2(O)CCCCC2)cc1 (stereo not drawn) [Venlafaxine]	QT prolongation, arrhythmias
O=C1Cc2cc(CCN3CCN(c4nsc5ccccc45)CC3)c(Cl)cc2N1 [Ziprasidone]	QT prolongation, TdP, sudden cardiac death
Arsenic trioxide	QT prolongation, tachycardia
Ipilimumab	lethal myocarditis
Nivolumab	lethal myocarditis

Tested on: vascularized cardiac organoids
Experiment: Integrated metabolic-electro-mechanical sensor chip: simultaneous contraction, field potential and interstitial oxygen
Assay type: cell-based, human
Conditions: 10 μM Blebbistatin

Molecule	effect on contraction	effect on field potential and interstitial oxygen oscillation frequency and intensity
Cc1ccc2c(c1)C(=O)C1(O)CCN(c3ccccc3)C1=N2 (stereo not drawn) [Blebbistatin]	inhibits the contraction; also recorded: blocked cardiac contraction	does not affect the FPs or interstitial oxygen oscillations frequency and intensity; also recorded: did not affect the field potential or the oxygen oscillation frequency and intensity

Tested on: vascularized cardiac organoids
Experiment: as above
Assay type: cell-based, human
Conditions: not given
Experimental: The MEA design and printed connections enabled access to 45 different electrodes inside the platform intermittently via a compatible sensor circuit (FIGS. 9A-9B). Spontaneous cardiac field potentials (FPs) were recorded from cardiac organoids using an integrated signal conditioning circuit (AD8232®), with a 2-pole adjustable high-pass filter, 3-pole adjustable low-pass filter, adjustable gain, and medical instrumentation amplifiers to extract, amplify, and filter the extracellular field potential of the organoids remotely within the confined well. […] Spontaneous cardiac field potentials were measured at 100 Hz sampling rate in each microwell. Field potential rhythm frequency was calculated in real-time using a custom-made MATLAB® software imposing Fourier Transformation (FFT) on the evolving kinetic data (FIGS. 9C-9D).
Real-time oxygen measurement was performed based on previously described elements. Briefly, phosphorescent ruthenium microprobes (CPOx-50-RuP) show a decrease in phosphorescence decay time as a function of oxygen concentration, allowing to measure the oxygen content. Controlled sinusoidal modulated 532-nm LED signal excites the embedded oxygen sensors and emits a sinusoidal amplitude-modulated light at 605 nm that is shifted in phase due to oxygen quenching. A phase shift is measured between the emission hardware-filtered first detector (PMT), and a second excitation detector (cPMT). […] Measurements were carried out at a 10 Hz sampling rate. Contraction rate and oxygen rhythm frequency were calculated in real-time using a custom-made MATLAB® software imposing Fourier Transformation (FFT) on the evolving kinetic data. Using custom MATLAB code, we calculated the cardiac organoid contraction rates directly from our oxygen reader based on the emission intensity measured in peak-to-peak voltage from the oxygen bead and its displacement using the second PMT system. Cardiac displacement was measured by the embedded oxygen beads inside the cardiac organoids during a contraction. When the beads move at different distances from the focal point, changes in peak-to-peak voltage occurred leading to the detection of the contraction behavior.
For simultaneous real-time oxygen, contraction rate, and field potential measurements, cardiac organoids were cultured in RPMI supplemented with B27 minus insulin, 5 ng/ml VEGF and 0.1% DMSO (control) or 10 μM KB-R7943 mesylate. Real-time oxygen, contraction rate, and field potential were measured after 0, 15, and 25 minutes of exposure to DMSO (control) or 10 μM KB-R7943 mesylate.

Molecule	effect on field potential generation, mechanical contraction (and oxygen oscillation)	effect on oxygen oscillation
NC1=N[C@H](O)[C@H]2[C@H]3O[C@]4(O)O[C@@H]([C@@H](O)[C@@]2(N1)[C@@H]4O)[C@]3(O)CO [Tetrodotoxin]	complete loss of field potential generation and associated mechanical contraction; also recorded: eliminated field potential generation, mechanical contraction, and oxygen oscillation	decayed simultaneously with the field potential
